In patent US8703768B2, “Nitrogen containing heteroaryl compounds” (Hoffmann-La Roche Inc., priority 2010, dated 2014) one finds IC50 data, which are given here for 29 compounds.

Structures are written as SMILES. pIC50: −log10 of the molar value.

This assay concerns the target human PDE10A (Homo sapiens (Human), UniProt Q9Y233). The experiment in a line: human PDE10A full length Scintillation Proximity Assay (SPA). In kind it is biochemical. The conditions noted are these: 50 nM cGMP and 50 nM [3H]-cGMP, 20 minutes at room temperature; read-out: PDE10A inhibition IC50. As to the method: The following test was carried out in order to determine the activity of the compounds of the present invention.
The human PDE10A full length assay was performed in 96-well micro titer plates. […] Non-specific activity was tested without the enzyme. The reaction was initiated by the addition of the substrate solution (cGMP and [^3H]-cGMP) and allowed to progress for 20 minutes at room temperature. The reaction was terminated by adding 25 μl of YSi-SPA scintillation beads (GE Healthcare, cat. # RPNQ0150) in 18 mM zinc sulphate solution (stop reagent). After 1 h under shaking, the plate was centrifuged one minute at 170 g to allow beads to settle. Afterwards, radioactive counts were measured on a Perkin Elmer TopCount Scintillation plate reader.

Sequence of human PDE10A (Q9Y233 other isoform, or with tags, fused parts or gaps): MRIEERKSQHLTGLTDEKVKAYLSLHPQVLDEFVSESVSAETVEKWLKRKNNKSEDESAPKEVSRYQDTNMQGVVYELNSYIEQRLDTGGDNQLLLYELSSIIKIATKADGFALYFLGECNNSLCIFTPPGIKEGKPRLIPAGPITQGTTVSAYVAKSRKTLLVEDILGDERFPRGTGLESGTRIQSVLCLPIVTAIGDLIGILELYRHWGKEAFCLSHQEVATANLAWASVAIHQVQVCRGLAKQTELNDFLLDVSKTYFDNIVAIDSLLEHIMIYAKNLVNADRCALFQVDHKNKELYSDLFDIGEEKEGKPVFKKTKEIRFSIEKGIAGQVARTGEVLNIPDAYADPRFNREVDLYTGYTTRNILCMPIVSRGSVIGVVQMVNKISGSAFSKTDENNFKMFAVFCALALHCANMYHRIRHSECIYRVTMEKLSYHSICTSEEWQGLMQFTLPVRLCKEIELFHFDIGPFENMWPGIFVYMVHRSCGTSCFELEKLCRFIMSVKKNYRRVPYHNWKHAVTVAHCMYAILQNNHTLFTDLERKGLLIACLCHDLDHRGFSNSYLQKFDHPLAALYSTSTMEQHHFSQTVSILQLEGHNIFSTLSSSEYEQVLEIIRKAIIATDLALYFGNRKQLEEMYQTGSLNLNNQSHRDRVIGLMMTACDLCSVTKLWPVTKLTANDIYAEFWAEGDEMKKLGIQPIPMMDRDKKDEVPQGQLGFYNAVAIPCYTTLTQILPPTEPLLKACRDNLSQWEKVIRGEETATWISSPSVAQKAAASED

Consider `CNC(=O)c1c(NC(=O)c2nc(C3CC3)cnc2Nc2cncnc2)cnn1C(C)C` [Example 139, 6-Cyclopropyl-3-(pyrimidin-5-ylamino)-pyrazine-2-carboxylic acid (1-isopropyl-5-methylcarbamoyl-1H-pyrazol-4-yl)-amide], for which the pIC50 was 7.94.

For the compound `CCn1ncc(NC(=O)c2nc(C3CC3)cnc2Nc2cncnc2)c1C(=O)NCC(C)(C)O` [Example 132, 6-Cyclopropyl-3-(pyrimidin-5-ylamino)-pyrazine-2-carboxylic acid [1-ethyl-5-(2-hydroxy-2-methyl-propylcarbamoyl)-1H-pyrazol-4-yl]-amide], the pIC50 is 7.77.

As for `Cn1ncc(NC(=O)c2nc(C3CC3)cnc2Nc2cncnc2)c1C(=O)NCC(C)(F)F` [Example 165, 6-Cyclopropyl-3-(pyrimidin-5-ylamino)-pyrazine-2-carboxylic acid [5-(2,2-difluoro-propylcarbamoyl)-1-methyl-1H-pyrazol-4-yl]-amide], the pIC50 is 8.66.

Take `CC(C)(O)CNC(=O)c1ncccc1NC(=O)c1nc(C2CC2)cnc1Nc1cncnc1` [Example 98, 6-Cyclopropyl-3-(pyrimidin-5-ylamino)-pyrazine-2-carboxylic acid [2-(2-hydroxy-2-methyl-propylcarbamoyl)-pyridin-3-yl]-amide]: the pIC50 is 9.40.

As for `CC1(C)CCN(C(=O)c2ccncc2NC(=O)c2nc(C3CC3)ccc2Nc2cncnc2)C1` [Example 63, 6-Cyclopropyl-3-(pyrimidin-5-ylamino)-pyridine-2-carboxylic acid [4-(3,3-dimethyl-pyrrolidine-1-carbonyl)-pyridin-3-yl]-amide], the pIC50 was 7.06.

For `CNC(=O)c1cc(Cl)ncc1NC(=O)c1nc(C2CC2)cnc1Nc1cncnc1` [Example 259, 6-Cyclopropyl-3-(pyrimidin-5-ylamino)-pyrazine-2-carboxylic acid (6-chloro-4-methylcarbamoyl-pyridin-3-yl)-amide], the pIC50 is 8.74.

With `CC(C)(O)CNC(=O)c1ncncc1NC(=O)c1nc(C2CC2)cnc1Nc1cncnc1` [Example 97, 5-{[6-Cyclopropyl-3-(pyrimidin-5-ylamino)-pyrazine-2-carbonyl]-amino}-pyrimidine-4-carboxylic acid (2-hydroxy-2-methyl-propyl)-amide], the pIC50 was 8.96.

For `CCN(CC)C(=O)c1c(NC(=O)c2nc(C3CC3)cnc2Nc2cncnc2)cnn1C` [Example 228, 6-Cyclopropyl-3-(pyrimidin-5-ylamino)-pyrazine-2-carboxylic acid (5-diethylcarbamoyl-1-methyl-1H-pyrazol-4-yl)-amide], the pIC50 was 7.42.

Turning to `CN(C(=O)c1nn(C)cc1NC(=O)c1nc(C2CC2)ccc1Nc1cncnc1)C1CC1` [Example 15, 6-Cyclopropyl-3-(pyrimidin-5-ylamino)-pyridine-2-carboxylic acid [3-(cyclopropyl-methyl-carbamoyl)-1-methyl-1H-pyrazol-4-yl]-amide], the pIC50 was 7.97.

On to `CC1(NC(=O)c2ccncc2NC(=O)c2nc(C3CC3)cnc2Nc2cncnc2)COC1` [Example 121, 6-Cyclopropyl-3-(pyrimidin-5-ylamino)-pyrazine-2-carboxylic acid [4-(3-methyl-oxetan-3-ylcarbamoyl)-pyridin-3-yl]-amide], for which the pIC50 is 8.24.

`CNC(=O)c1nc(C2CCCO2)ccc1NC(=O)c1nc(C2CC2)cnc1Nc1cncnc1` (centres unmarked) [Example 177, 6-Cyclopropyl-3-(pyrimidin-5-ylamino)-pyrazine-2-carboxylic acid [2-methylcarbamoyl-6-(tetrahydro-furan-2-yl)-pyridin-3-yl]-amide]: the pIC50 is 9.70.

On to `CNC(=O)c1c(F)cc(F)cc1NC(=O)c1nc(C2CC2)cnc1Nc1cncnc1` [Example 299, 6-Cyclopropyl-3-(pyrimidin-5-ylamino)-pyrazine-2-carboxylic acid (3,5-difluoro-2-methylcarbamoyl-phenyl)-amide], for which the pIC50 is 9.52.

On to `CNC(=O)c1ccncc1NC(=O)c1nc(C2CC2)cnc1Nc1cncnc1` [Example 124, 6-Cyclopropyl-3-(pyrimidin-5-ylamino)-pyrazine-2-carboxylic acid (4-methylcarbamoyl-pyridin-3-yl)-amide], for which the pIC50 is 8.68.

`CC(C)(CO)NC(=O)c1ccncc1NC(=O)c1nc(C2CC2)cnc1Nc1cncnc1` [Example 125, 6-Cyclopropyl-3-(pyrimidin-5-ylamino)-pyrazine-2-carboxylic acid [4-(2-hydroxy-1,1-dimethyl-ethylcarbamoyl)-pyridin-3-yl]-amide]: the pIC50 was 8.25.

With `CNC(=O)c1c(NC(=O)c2nc(N3CCOCC3)cnc2Nc2cncnc2)cnn1C` [Example 297, 6-Morpholin-4-yl-3-(pyrimidin-5-ylamino)-pyrazine-2-carboxylic acid (1-methyl-5-methylcarbamoyl-1H-pyrazol-4-yl)-amide], the pIC50 is 8.39.

With `O=C(Nc1cnccc1C(=O)N1CC(O)C1)c1nc(C2CC2)ccc1Nc1cncnc1` [Example 82, 6-Cyclopropyl-3-(pyrimidin-5-ylamino)-pyridine-2-carboxylic acid [4-(3-hydroxy-azetidine-1-carbonyl)-pyridin-3-yl]-amide], the pIC50 is 7.23.

As to `CN(C)C(=O)c1ncccc1NC(=O)c1nc(C2CC2)cnc1Nc1cncnc1` [Example 129, 6-Cyclopropyl-3-(pyrimidin-5-ylamino)-pyrazine-2-carboxylic acid (2-dimethylcarbamoyl-pyridin-3-yl)-amide], the pIC50 was 8.22.

On to `CN(CC(C)(C)O)C(=O)c1ncccc1NC(=O)c1nc(C2CC2)cnc1Nc1cncnc1` [Example 123, 6-Cyclopropyl-3-(pyrimidin-5-ylamino)-pyrazine-2-carboxylic acid {2-[(2-hydroxy-2-methyl-propyl)-methyl-carbamoyl]-pyridin-3-yl}-amide], for which the pIC50 was 8.02.

For the compound `O=C(NC1CC1)c1ccncc1NC(=O)c1nc(C2CC2)ccc1Nc1cncnc1` [Example 57, 6-Cyclopropyl-3-(pyrimidin-5-ylamino)-pyridine-2-carboxylic acid (4-cyclopropylcarbamoyl-pyridin-3-yl)-amide], the pIC50 is 8.68.

Regarding `CCn1ncc(NC(=O)c2nc(C3CC3)cnc2Nc2cncnc2)c1C(=O)N1CCOCC1` [Example 170, 6-Cyclopropyl-3-(pyrimidin-5-ylamino)-pyrazine-2-carboxylic acid [1-ethyl-5-(morpholine-4-carbonyl)-1H-pyrazol-4-yl]-amide], the pIC50 was 7.05.

Consider `CN(C)C(=O)c1nc(C2CC2)ccc1NC(=O)c1nc(C2CC2)cnc1Nc1cncnc1` [Example 265, 6-Cyclopropyl-3-(pyrimidin-5-ylamino)-pyrazine-2-carboxylic acid (6-cyclopropyl-2-dimethylcarbamoyl-pyridin-3-yl)-amide], for which the negative-log IC50 (pIC50) was 7.69.

Turning to `CNC(=O)c1nn(C)cc1NC(=O)c1nc(C2CCCO2)ccc1Nc1cncnc1` (centres unmarked) [Example 103, 3-(Pyrimidin-5-ylamino)-6-(tetrahydro-furan-2-yl)-pyridine-2-carboxylic acid (1-methyl-3-methylcarbamoyl-1H-pyrazol-4-yl)-amide], the pIC50 was 7.23.

On to `O=C(Nc1cccnc1C(=O)N1CCC1)c1nc(C2CC2)cnc1Nc1cncnc1` [Example 194, 6-Cyclopropyl-3-(pyrimidin-5-ylamino)-pyrazine-2-carboxylic acid [2-(azetidine-1-carbonyl)-pyridin-3-yl]-amide], for which the pIC50 was 8.26.

Regarding `CN(C)C1CCN(C(=O)c2ccncc2NC(=O)c2nc(C3CC3)ccc2Nc2cncnc2)C1` (centres unmarked) [Example 53, 6-Cyclopropyl-3-(pyrimidin-5-ylamino)-pyridine-2-carboxylic acid [4-(3-dimethylamino-pyrrolidine-1-carbonyl)-pyridin-3-yl]-amide], the pIC50 is 7.13.

Take `CC(C)Cn1ncc(NC(=O)c2nc(C3CC3)cnc2Nc2cncnc2)c1C(=O)NCC(C)(C)O` [Example 134, 6-Cyclopropyl-3-(pyrimidin-5-ylamino)-pyrazine-2-carboxylic acid [5-(2-hydroxy-2-methyl-propylcarbamoyl)-1-isobutyl-1H-pyrazol-4-yl]-amide]: the pIC50 is 7.67.

On to `CN(C)C(=O)c1ncncc1NC(=O)c1nc(C2CC2)cnc1Nc1cncnc1` [Example 205, 5-{[6-Cyclopropyl-3-(pyrimidin-5-ylamino)-pyrazine-2-carbonyl]-amino}-pyrimidine-4-carboxylic acid dimethylamide], for which the pIC50 is 7.05.

Consider `CC(C)(O)CNC(=O)c1c(NC(=O)c2nc(C3CC3)cnc2Nc2cncnc2)cnn1CC1CCOC1` (centres unmarked) [Example 287, 6-Cyclopropyl-3-(pyrimidin-5-ylamino)-pyrazine-2-carboxylic acid [5-(2-hydroxy-2-methyl-propylcarbamoyl)-1-(tetrahydro-furan-3-ylmethyl)-1H-pyrazol-4-yl]-amide], for which the pIC50 was 7.82.

For `CC(C)(O)CNC(=O)c1c(NC(=O)c2nc(C3CC3)cnc2Nc2cncnc2)cnn1CC1CCCO1` (centres unmarked) [Example 244, 6-Cyclopropyl-3-(pyrimidin-5-ylamino)-pyrazine-2-carboxylic acid [5-(2-hydroxy-2-methyl-propylcarbamoyl)-1-(tetrahydro-furan-2-ylmethyl)-1H-pyrazol-4-yl]-amide], the negative-log IC50 (pIC50) was 9.70.

On to `CC(C)(O)CNC(=O)c1ccc(F)cc1NC(=O)c1nc(C2CC2)cnc1Nc1cncnc1` [Example 301, 6-Cyclopropyl-3-(pyrimidin-5-ylamino)-pyrazine-2-carboxylic acid [5-fluoro-2-(2-hydroxy-2-methyl-propylcarbamoyl)-phenyl]-amide], for which the pIC50 is 9.40.

What is called pIC50 is the negative decadic logarithm of the IC50, by convention in mol/L.
